Patent EP0102195A2, “Substituted aza bicycloalkyl derivatives with dopamine antagonist activity” (BEECHAM GROUP PLC, priority 1982, dated 1984)

How the values were obtained:
Dopamine receptor = experiment: Inhibition of apomorphine induced climbing in the mouse (central dopamine receptor blocking activity); format: in vivo; conditions: apomorphine 1 mg/kg s.c.
Heidenhain pouch = Heidenhain pouch test (gastric motility enhancing activity); format: in vivo, Male Beagle dogs; conditions: Beagle dogs; for period of activity: Heidenhain pouch
dog = experiment: Anti-emetic activity in the dog (apomorphine-induced vomiting); format: in vivo; conditions: for ED50: Canis lupus familiaris, sc, 30 minutes prior to apomorphine HCl 0.1 mg/kg subcutaneously, vomiting response
Protocol: Compounds were administered subcutaneously 30 minutes prior to administration of a standard dose of apomorphine HCl (0.1 mg/kg subcutaneously) and the vomiting response compared to that obtained when the same animals were dosed with apomorphine HC1 and vehicle only.

rats = experiment: Increase in intragastric pressure (gastric motility enhancing activity); format: in vivo; conditions: 0.5 mg/kg s.c.; conscious restrained rats; average height of pressure waves, 40 minutes post dose vs pre-dose, Student's t test
Protocol: Intragastric pressure changes were recorded from previously starved conscious but restrained rats using a saline filled catheter inserted into the lumen of the stomach via a permanent gastric fistula. The catheter was connected to a physiological pressure transducer and pressure changes recorded on a hot wire pen recorder. In each animal a pre-dose period of 40 minutes was allowed to obtain a measure of spontaneous activity. An index of activity was obtained by measuring the average height of pressure waves during 10 minute periods. Values for 4 such periods were obtained during assessment of spontaneous activity and for 40 minute period after administration of compound. Student's "t" test was applied to the difference in average values obtained for spontaneous and post compound activity.

## CN(C)c1ccc(S(=O)(=O)N(C)C)cc1C(=O)N[C@@H]1C[C@H]2CC[C@@H](C1)N2Cc1ccccc1 [Example 2, 2-Dimethylamino-5-dimethylaminosulphonyl-ls(3'6-(8'-benzyl-8'-azabicyclo{3.2.1]octyl)]-benzamide]
Dopamine receptor; dose of 10 mg/kg s.c.
  inhibition of apomorphine induced climbing: inactive
Heidenhain pouch; dose of 0.5 mg/kg s.c.
  motility of the pouch (activity): active
dog
  ED50: 0.1 mg/kg

## CNc1ccc(S(=O)(=O)N(C)C)cc1C(=O)N[C@@H]1C[C@H]2CC[C@@H](C1)N2Cc1ccccc1 [Example 3, 5-Dimethylaminosulphonyl-2-methylamino-N(3'β(8'-benzyl-8'-azabicyclo{3.2.1}octyl)]benzamide]
Dopamine receptor; dose of 25 mg/kg s.c.
  inhibition of apomorphine induced climbing: inactive
rats
  index of activity post administration: significantly increased
Heidenhain pouch
  period of activity: greater than 1 hour
Heidenhain pouch; dose of 0.1 mg/kg s.c.
  motility of the pouch (activity): active

## CCOC(=O)N(C)c1ccc(S(=O)(=O)N(C)C)cc1C(=O)N[C@@H]1C[C@H]2CC[C@@H](C1)N2Cc1ccccc1 [Example 4, 5-Dimethylaminosulphonyl-2-(N-methyl-N-ethoxycarbonyl)amino-N [3'8-(8'-benzyl-8'-azabicyclo{3.2.1]octyl)] benzamide]
Dopamine receptor; dose of 10 mg/kg s.c.
  inhibition of apomorphine induced climbing: inactive

## CCNc1ccc(S(=O)(=O)N(C)C)cc1C(=O)N[C@@H]1C[C@H]2CC[C@@H](C1)N2Cc1ccccc1 [Example 5, 5-Dimethylaminosulphonyl-2-ethylamino-N[3 ε'-(8' -benzyl-8' -azabicyclo'{3.2.1)octyl)]-benzamide]
Dopamine receptor; dose of 10 mg/kg s.c.
  inhibition of apomorphine induced climbing: inactive
rats
  index of activity post administration: significantly increased

## CN(C)S(=O)(=O)c1ccc(NC2CC2)c(C(=O)N[C@@H]2C[C@H]3CC[C@@H](C2)N3Cc2ccccc2)c1 [Example 6]
Dopamine receptor; dose of 10 mg/kg s.c.
  inhibition of apomorphine induced climbing: inactive
rats
  index of activity post administration: significantly increased
Heidenhain pouch
  period of activity: greater than 1 hour
Heidenhain pouch; dose of 0.5 mg/kg s.c.
  motility of the pouch (activity): active
dog
  ED50: 0.5 mg/kg

## CNc1cccc(OC)c1C(=O)N[C@@H]1C[C@H]2CC[C@@H](C1)N2Cc1ccccc1 [Example 12, 2-Methylamino-6-methoxy-N-[3β-(8-benzyl-8-azabicyclo (3,2,1)octyl)]benzamide]
dog; dose of 0.01 mg/kg s.c., apomorphine HCl 0.1 mg/kg subcutaneously
  anti-emetic activity: active
